Key:
[1] = human, in vivo
Method: (§2) Study drug: Ceftaroline fosamil was administered in two consecutive 300 mg intravenous (IV) infusions over 30 minutes, every 12 hours (q12h). The 600-mg dose of ceftaroline fosamil infused over 60 minutes was split into two infusions in order to maintain the blind. For subjects with moderate renal impairment (30 mL/min<CrCl≤50 mL/min), as estimated by the Cockroft-Gault formula, unblinded pharmacy staff or unblinded study staff could adjust the dose of ceftaroline fosamil to two consecutive 200 mg infusions and readjust dose to two 300 mg infusions when renal function improved (CrCl>50 mL/min). The duration of treatment was between 5 to 7 days.
(§3) All subjects initially received two doses (500 mg every 12 hours) of oral adjunctive therapy with clarithromycin following randomization.
(§4) All subjects who received any amount of study drug were included in the safety analysis. Safety measures included monitoring for adverse events (AE) up to TOC and serious adverse events (SAE) through LFU; recording vital signs, physical examination, electrocardiogram (ECG), and clinical laboratory findings (clinical chemistry, hematology, and urinalysis); at prespecified times throughout the study.

[2] = Example 5 CAP study, safety
Method: as §2, §3, §4

MDRSP [3] = experiment: Example 5 CAP study, outcome by baseline pathogen; assay type: in vivo, S. pneumoniae
Source text: (§1) Per-pathogen clinical cure rate and favorable microbiological outcome rate at TOC in the mMITTE and ME Populations;

[4] = human, in vivo; remark: listed apart in the source
H. parainfluenzae = experiment: Example 4 CAP study, outcome by baseline pathogen; assay type: in vivo
Source text: as §1

S. pneumoniae = experiment: Example 4 CAP study, outcome by baseline pathogen; assay type: in vivo
Source text: as §1

S. aureus = experiment: Example 4 CAP study, outcome by baseline pathogen; assay type: in vivo
Source text: as §1

H. influenzae = experiment: Example 4 CAP study, outcome by baseline pathogen; assay type: in vivo
Source text: as §1

K. pneumoniae = experiment: Example 4 CAP study, outcome by baseline pathogen; assay type: in vivo
Source text: as §1

[5] = Excretion after single IV dose of radiolabeled ceftaroline fosamil in healthy male adults; assay type: in vivo, human; conditions: in vivo
Method: Following administration of a single 600 mg IV dose of radiolabeled ceftaroline fosamil to healthy male adults, approximately 87% of radioactivity was recovered in urine and 6% in feces. The majority of the radioactivity (˜90%) was recovered within 48 hours. Of the radioactivity recovered in urine, approximately 64% was excreted as ceftaroline and approximately 2% as ceftaroline-M-1.

[6] = tested on: complicated skin and skin structure infections (cSSSI); experiment: Two Phase 3 studies in cSSSI, clinical cure at TOC; assay type: in vivo, human; conditions: co-primary CE and MITT populations
Method: A total of 1396 adults with clinically documented complicated skin and skin structure infections (cSSSI) were enrolled in two randomized, multi-center, multinational, double-blind, studies comparing 600 mg ceftaroline fosamil administered intravenously over 1 hour every 12 hours to vancomycin plus aztreonam [1 g vancomycin administered intravenously over 1 hour followed by 1 g aztreonam administered intravenously over 1 hour every 12 hours]. Patients with cSSSI (deep/extensive cellulitis, a major abscess, a wound infection [surgical or traumatic], infected insect bites, burns or ulcers, lower extremity infection in patients with diabetes mellitus or peripheral vascular disease), were enrolled in the studies. Treatment duration was […] days. A switch to oral therapy was not allowed. The Modified Intent-to-Treat (MITT) population included all patients who received any amount of study drug according to their randomized treatment group.
The primary efficacy endpoint was clinical response at the Test of Cure (TOC) visit in the co-primary CE and MITT populations (Table 2). […] In a subgroup analysis (CE population), the comparative clinical cure rates between the ceftaroline group and the vancomycin plus aztreonam group were not affected by age, gender, race, ethnicity, or weight.

MDRSP [7] = experiment: Example 4 CAP study, outcome by baseline pathogen; assay type: in vivo, S. pneumoniae
Source text: as §1

[8] = human, in vivo; remark: listed apart in the source
Method: The pharmacokinetics of ceftaroline were evaluated in adolescent patients (ages 12 to 17) with normal renal function.
No dose adjustment is required based on gender.

[9] = tested on: CYP1A1, CYP1A2, CYP2A6, CYP2B6, CYP2C8, CYP2C9, CYP2C19, CYP2D6, CYP2E1 and CYP3A4; experiment: Cytochrome P450 inhibition in human liver microsomes; assay type: in vitro ADME; conditions: microsomes
[10] = human, in vivo; remark: listed apart in the source
[11] = tested on: Community-Acquired Bacterial Pneumonia (CABP); experiment: Two Phase 3 studies in CABP, clinical cure at TOC (single and integrated/combined); assay type: in vivo, human; conditions: TOC; for Combined clinical cure rate: combined data of the two CAP studies; for Weighted treatment difference (95% CI), ceftaroline versus ceftriaxone: combined data
Method: In both treatment groups of CABP Study 1, two doses of oral clarithromycin (500 mg q12 h), were administered as adjunctive therapy starting on Study Day 1. No adjunctive macrolide therapy was used in CABP Study 2. Patients with new or progressive pulmonary infiltrate(s) on chest radiography and clinical signs and symptoms consistent with CABP with the need for hospitalization and IV therapy were enrolled in the studies. Treatment duration was 5 to 7 days. A switch to oral therapy was not allowed. The Modified Intent-to-Treat Efficacy (MITTE) population, included all patients who received any amount of study drug according to their randomized, treatment group and were in PORT (Pneumonia Outcomes Research Team) Risk Class III or IV.
The primary efficacy endpoint was the clinical response at the Test of Cure (TOC) visit in the co-primary Ce and MITTE populations (Table 4).

[12] = tested on: CYP1A2, CYP2B6, CYP2C8, CYP2C9, CYP2CI9, or CYP3A4/5; experiment: CYP induction in human hepatocytes; assay type: in vitro ADME

Structure (SMILES): CCO/N=C(\C(=O)N[C@@H]1C(=O)N2C(C(=O)[O-])=C(Sc3nc(-c4cc[n+](C)cc4)cs3)CS[C@H]12)c1nsc(N)n1 [Ceftaroline, ceftaroline]
- Adverse event: Constipation [1]: 7 (2.3) %
- TEAEs assessed as drug related by the Investigators [1]: 17.1%
- study-drug-related TEAE: headache [1]: 1.0%
- study-drug-related TEAE: hepatic enzyme increased [1]: 0.3%
- study-drug-related TEAE: sinus bradychardia [1]: 1.0%
- hemolytic anemia [2]: No evidence of hemolytic anemia
- percentage of deaths [2]: 1.7%
- Favorable Microbiological Outcome at TOC by Baseline Pathogen (MDRSP [3]; Example 5, ME): 2/2 (100.0)
- Clinical Cure Rate at the TOC Visit by Baseline Pathogen (MDRSP [3]; Example 5, ME Population): 2/2 (100.0)
- change in exposure (Cmax and AUC) with concomitant CYP450 inhibitors, inducers, substrates [4]: did nor identify any clinically relevant increases
- Favorable Microbiological Outcome at TOC by Baseline Pathogen (H. parainfluenzae; Example 4, ME): 9/9 (100.0)
- Clinical Cure Rate at the TOC Visit by Baseline Pathogen (H. parainfluenzae; Example 4, ME Population): 9/9 (100.0)
- Favorable Microbiological Outcome at TOC by Baseline Pathogen (S. pneumoniae; Example 4, ME): 35/39 (89.7)
- Clinical Cure Rate at the TOC Visit by Baseline Pathogen (S. pneumoniae; Example 4, ME Population): 33/39 (84.6)
- Favorable Microbiological Outcome at TOC by Baseline Pathogen (S. aureus; Example 4, ME): 11/15 (73.3)
- Clinical Cure Rate at the TOC Visit by Baseline Pathogen (S. aureus; Example 4, ME Population): 10/15 (66.7)
- Favorable Microbiological Outcome at TOC by Baseline Pathogen (H. influenzae; Example 4, ME): 13/15 (86.7)
- Clinical Cure Rate at the TOC Visit by Baseline Pathogen (H. influenzae; Example 4, ME Population): 13/15 (86.7)
- Favorable Microbiological Outcome at TOC by Baseline Pathogen (K. pneumoniae; Example 4, ME): 6/6 (100.0)
- Clinical Cure Rate at the TOC Visit by Baseline Pathogen (K. pneumoniae; Example 4, ME Population): 6/6 (100.0)
- route of elimination [5]: primarily eliminated by the kidneys
- clinical response at TOC, comparison with comparator [6]: non-inferior to vancomycin plus aztreonam
- Favorable Microbiological Outcome at TOC by Baseline Pathogen (MDRSP [7]; Example 4, ME): 2/2 (100.0)
- Clinical Cure Rate at the TOC Visit by Baseline Pathogen (MDRSP [7]; Example 4, ME Population): 2/2 (100.0)
- AUC higher in female vs male subjects (trend) ([8]; both): 6-15%
- Cmax higher in female vs male subjects (trend) ([8]; both): 17-22%
- mean recovery in the dialysate, share of the administered dose ([8]; 4 h): 21.6%
- mean AUC higher than in healthy young adults (18-45 years) ([8]; iv, 600 mg): ~33%
- inhibition of major cytochrome P450 isoenzymes [9]: neither ceftaroline fosamil nor ceftaroline inhibits
- CL/Fm [10]: 9.60 (1.40) L/h
- dose dependence of Cmax and AUC [10]: increased approximately in proportion to increases in dose
- t1/2 [10]: 2.66 (0.40) h
- Combined clinical cure rate ([11]; CE): 387/459 (84.3) %
- Combined clinical cure rate ([11]; ME): 131/154 (85.1) %
- Combined clinical cure rate ([11]; MITTE): 479/580 (82.6) %
- Combined clinical cure rate ([11]; mMITTE): 138/165 (83.6) %
- Weighted treatment difference (95% CI), ceftaroline versus ceftriaxone ([11]; CE): 6.7 (1.6, 11.8) %
- Weighted treatment difference (95% CI), ceftaroline versus ceftriaxone ([11]; CE, listed as ceftaroline): 6.7%
- Weighted treatment difference (95% CI), ceftaroline versus ceftriaxone ([11]; ME): 9.7 (0.7, 18.8) %
- Weighted treatment difference (95% CI), ceftaroline versus ceftriaxone ([11]; ME, listed as ceftaroline): 9.7%
- Weighted treatment difference (95% CI), ceftaroline versus ceftriaxone ([11]; MITTE): 6.0 (1.4, 10.7) %
- Weighted treatment difference (95% CI), ceftaroline versus ceftriaxone ([11]; mMITTE): 8.7 (−0.0, 17.4) %
- Weighted treatment difference (95% CI), ceftaroline versus ceftriaxone ([11]; mMITTE, listed as ceftaroline): 8.7%
- induction of CYP isoenzymes [12]: not inducers
